Measurements as given in patent publication US7094909B2, “HIV protease inhibitors, compositions containing the same, their pharmaceutical uses and materials for their synthesis” (priority 2001, dated 2006).

Legend:
[1] = target: T1, HIV-1 protease (Q7S mutant form) (Human immunodeficiency virus type 1 group M subtype B, UniProt P04585, Q495S); assay: HIV-1 Protease RET assay; format: biochemical; details: Ave. Ki (nM), RET assay, Q7S enzyme, Morrison tight binding fit
T1 construct: made in house
How it was run: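 Q7S HIV-1 protease, refolded from urea, 2 nM active dimer with 5 μM EDANS/DABCYL peptide cleaved at Tyr-Pro; fluorescence 340/490 nm. 12 min at 37 °C in 0.1M sodium acetate pH 4.8, 1M NaCl, 10% DMSO. Ki from Morrison tight-binding fit.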

[2] = test system: HIV-1 (HIV-1 RF, HIV-1 NL4-3) in CEM-SS / MT-2 cells; assay: Cytopathic effect (CPE) inhibition assay (XTT/MTT dye reduction); format: cell-based; details: Human immunodeficiency virus 1, NL43; read-out: Ave CPE EC50
Description: T-cell lines, CEM-SS, and MT-2, and viruses HIV-1 RF and HIV-1 NL4-3 (pNL4-3) were obtained from the National Institutes of Health (AIDS Research and Reference Reagent Program, Bethesda, Md.).
Cytopathic Effect (CPE) Inhibition Assays
The ability of compounds to protect cells against HIV infection was measured by the […] dye reduction method, essentially as described (See Pauwels, R. Balzarini, J. Baba, M. Snoeck, R. Schols, D. Herdewijn, P. Desmyter, J. and De Clercq, E. 1988, “Rapid and automated tetrazolium-based colorimetric assay for the detection of anti-HIV compounds,”. J Virol. Methods., 20: 309–321 and Weislow, O. S. Kiser, R. Fine, D. L. Bader, J. Shoemaker, R. H. and Boyd, M. R. 1989. “New soluble-formazan assay for HIV-1 cytopathic effects: application to high-flux screening of synthetic and natural products for AIDS-antiviral activity”. J. Natl. Cancer Inst. 81:577–586). Subject cells were infected with test virus at an moi of 0.025 to 0.819 or mock infected with medium only and added at 2×10^4 cells per well into 96 well plates containing half-log dilutions of test compounds. Six days later, 50 μl of XTT (1 mg/ml XTT tetrazolium, 0.02 nM phenazine methosulfate) was added to the wells and the plate was reincubated for four hours. Viability, as determined by the amount of XTT formazan produced, was quantified spectrophotometrically by absorbance at 450 nm. Data from CPE assays were expressed as the percent of formazan produced in compound-treated cells compared to formazan produced in wells of uninfected, compound-free cells. The fifty percent effective concentration (EC50) was calculated as the concentration of compound that effected an increase in the percentage of formazan production in infected, compound-treated cells to 50% of that produced by uninfected, compound-free cells. The 50% cytotoxicity concentration (CC50) was calculated as the concentration of compound that decreased the percentage of formazan produced in uninfected, compound-treated cells to 50% of that produced in uninfected, compound-free cells. The therapeutic index was calculated by dividing the cytotoxicity (CC50) by the antiviral activity (EC50).

Row | SMILES | Ki [1] [nM] | EC50 [2] [µM]
1 | Cc1c(O)cccc1C(=O)N[C@@H](Cc1ccccc1)[C@H](O)C(=O)N1CSC(C)(C)[C@H]1C(=O)NCc1ccccn1 [Example A3, (R)-3-((2S,3S)-2-Hydroxy-3-{[1-(3-hydroxy-2-methyl-phenyl)-methanoyl]-amino}-4phenyl-butanoyl)-5,5-dimethyl-thiazolidine-4-carboxylic acid (pyridin-2-ylmethyl)-amide] | 0.51 | 0.156
2 | Cc1c(O)cccc1C(=O)N[C@@H](Cc1ccccc1)[C@H](O)C(=O)N1CSC(C)(C)[C@H]1C(=O)NCc1cccnc1 [Example A5, (R)-3-((2S,3S)-2-Hydroxy-3-{[1-(3-hydroxy-2-methyl-phenyl)-methanoyl]-amino}-4-phenyl-butanoyl)-5,5-dimethyl-thiazolidine-4-carboxylic acid (pyridin-3-ylmethyl)-amide] | 0.2 | 0.148
3 | Cc1c(O)cccc1C(=O)N[C@@H](Cc1ccccc1)[C@H](O)C(=O)N1CSC(C)(C)[C@H]1C(=O)NCc1ccncc1 [Example A8, (R)-3-((2S,3S)-2-Hydroxy-3-{[1l-(3-hydroxy-2-methyl-phenyl)-methanoyl]-amino}-4-phenyl-butanoyl)-5,5-dimethyl-thiazolidine-4-carboxylic acid (pyridin-4-ylmethyl)-amide] | 1.4 | 0.451
4 | Cc1c(O)cccc1C(=O)N[C@@H](Cc1ccccc1)[C@H](O)C(=O)N1CSC(C)(C)[C@H]1C(=O)NCc1cccc2ccccc12 [Example A11, (R)-3-((2S,3S)-2-Hydroxy-3-{[1-(3-hydroxy-2-methyl-phenyl)-methanoyl]-amino}-4-phenyl-butanoyl)-5,5-dimethyl-thiazolidine-4-carboxylic acid (naphthalen-1-ylmethyl)-amide] | 0.5 | 0.144
5 | Cc1c(O)cccc1C(=O)N[C@@H](Cc1ccccc1)[C@H](O)C(=O)N1CSC(C)(C)[C@H]1C(=O)NCc1csc2ccc(Cl)cc12 [Example A24, (R)-3-((2S,3S)-2-Hydroxy-3-{[1-(3-hydroxy-2-methyl-phenyl)-methanoyl]-amino}-4-phenyl-butanoyl)-5,5-dimethyl-thiazolidine-4-carboxylic acid (5-chloro-benzo[b]thiophen-3-ylmethyl)-amide] | 0.52 | 0.466
6 | Cc1c(O)cccc1C(=O)N[C@@H](Cc1ccccc1)[C@H](O)C(=O)N1CSC(C)(C)[C@H]1C(=O)NC1CC1 [Example A25, (R)-3-((2S,3S)-2-Hydroxy-3-{[1-(3-hydroxy-2-methyl-phenyl)-methanoyl]-amino}-4-phenyl-butanoyl)-5,5-dimethyl-thiazolidine-4-carboxylic acid cyclopropylamide] | 0.97 | 0.125
7 | Cc1c(O)cccc1C(=O)N[C@@H](Cc1ccccc1)[C@H](O)C(=O)N1CSC(C)(C)[C@H]1C(=O)NC1CCC1 [Example A26, (R)-3-((2S,3S)-2-Hydroxy-3-{[1-(3-hydroxy-2-methyl-phenyl)-methanoyl]-amino}-4-phenyl-butanoyl)-5,5-dimethyl-thiazolidine-4-carboxylic acid cyclobutylamide] | 0.6 | 0.168
8 | Cc1c(O)cccc1C(=O)N[C@@H](Cc1ccccc1)[C@H](O)C(=O)N1CSC(C)(C)[C@H]1C(=O)NC1CCCC1 [Example A27, (R)-3-((2S,3S)-2-Hydroxy-3-{[1-(3-hydroxy-2-methyl-phenyl)-methanoyl]-amino}-4-phenyl-butanoyl)-5,5-dimethyl-thiazolidine-4-carboxylic acid cyclopentylamide] | < 0.1 | 0.11
9 | Cc1c(O)cccc1C(=O)N[C@@H](Cc1ccccc1)[C@H](O)C(=O)N1CSC(C)(C)[C@H]1C(=O)N1CCOCC1 [Example A30] | 10.9 | 0.586
10 | Cc1c(O)cccc1C(=O)N[C@@H](Cc1ccccc1)[C@H](O)C(=O)N1CSC(C)(C)[C@H]1C(=O)NC1CCCCCC1 [Example A31, (R)-3-((2S,3S)-2-Hydroxy-3-{[1-(3-hydroxy-2-methyl-phenyl)-methanoyl]-amino}-4-phenyl-butanoyl)-5,5-dimethyl-thiazolidine-4-carboxylic acid cycloheptylamide] | 0.44 | 0.062
11 | Cc1c(O)cccc1C(=O)N[C@@H](Cc1ccccc1)[C@H](O)C(=O)N1CSC(C)(C)[C@H]1C(=O)N1CCSCC1 [Example A33, N-{(1S,2S)-1-Benzyl-3-[(R)-5,5-dimethyl-4-(1-thiomorpholin-4-yl-methanoyl)-thiazolidin-3-yl]-2-hydroxy-3-oxo-propyl}-3-hydroxy-2-methyl-benzamide] | 5.1 | 0.749
12 | Cc1c(O)cccc1C(=O)N[C@@H](Cc1ccccc1)[C@H](O)C(=O)N1CSC(C)(C)[C@H]1C(=O)N1CCCCC1 [Example A34, N-{(1S,2S)-1-Benzyl-3-[(R)-5,5-dimethyl-4-(1-piperidin-1-yl-methanoyl)-thiazolidin-3-yl]-2-hydroxy-3-oxo-propyl}-3-hydroxy-2-methyl-benzamide] | 1.4 | 0.386
13 | Cc1c(O)cccc1C(=O)N[C@@H](Cc1ccccc1)[C@H](O)C(=O)N1CSC(C)(C)[C@H]1C(=O)NC[C@@H]1CCCO1 [Example A37, (R)-3-((2S,3S)-2-Hydroxy-3-{[1-(3-hydroxy-2-methyl-phenyl)-methanoyl]-amino}-4-phenyl-butanoyl)-5,5-dimethyl-thiazolidine-4-carboxylic acid (tetrahydro-furan-2-ylmethyl)-amide] | 3.7 | 0.416
14 | Cc1c(O)cccc1C(=O)N[C@@H](Cc1ccccc1)[C@H](O)C(=O)N1CSC(C)(C)[C@H]1C(=O)N[C@@H]1CCCc2ncccc21 [Example A43, 3-[2-Hydroxy-3-(3-hydroxy-2-methyl-benzoylamino)-4-phenyl-butyryl]-5,5-dimethyl-thiazolidine-4-carboxylic acid (5,6,7,8-tetrahydro-quinolin-5-yl)-amide] | 2.6 | 0.534
15 | Cc1c(O)cccc1C(=O)N[C@@H](Cc1ccccc1)[C@H](O)C(=O)N1CSC(C)(C)[C@H]1C(=O)NCc1n[nH]c2ccccc12 [Example A44, 3-(2-Hydroxy-3-{[1-(3-hydroxy-2-methyl-phenyl)-methanoyl]-amino}-4-phenyl-butanoyl)-5,5-dimethyl-thiazolidine-4-carboxylic acid (1H-indazol-3-ylmethyl)-amide] | 1.4 | 0.478
16 | Cc1c(O)cccc1C(=O)N[C@@H](Cc1ccccc1)[C@H](O)C(=O)N1CSC(C)(C)[C@H]1C(=O)NCC1CCOC1 (stereo partly drawn) [Example A46, (R)-3-((2S,3S)-2-Hydroxy-3-{[1-(3-hydroxy-2-methyl-phenyl)-methanoyl]-amino}-4-phenyl-butanoyl)-5,5-dimethyl-thiazolidine-4-carboxylic acid (tetrahydro-furan-3-ylmethyl)-amide] | 1.1 | 0.469
17 | Cc1c(O)cccc1C(=O)N[C@@H](Cc1ccccc1)[C@H](O)C(=O)N1CSC(C)(C)[C@H]1C(=O)N[C@@H]1CCCc2occc21 [Example A47, 3-[2-Hydroxy-3-(3-hydroxy-2-methyl-benzoylamino)-4-phenyl-butyryl]-5,5-dimethyl-thiazolidine-4-carboxylic acid (4,5,6,7-tetrahydro-benzofuran-4-yl)-amide] | 0.27 | 0.196
18 | Cc1c(O)cccc1C(=O)N[C@@H](Cc1ccccc1)[C@H](O)C(=O)N1CSC(C)(C)[C@H]1C(=O)N[C@@H]1CCCc2sccc21 [Example A49, 3-[2-Hydroxy-3-(3-hydroxy-2-methyl-benzoylamino)-4-phenyl-butyryl]-5,5-dimethyl-thiazolidine-4-carboxylic acid (4,5,6,7-tetrahydro-benzo[b]thiophen-4-yl)-amide] | 0.49 | 0.161
19 | Cc1c(O)cccc1C(=O)N[C@@H](Cc1ccccc1)[C@H](O)C(=O)N1CSC(C)(C)[C@H]1C(=O)N[C@@H]1CCc2ncccc21 [Example A52, 3-[2-Hydroxy-3-(3-hydroxy-2-methyl-benzoylamine)-4-phenyl-butyryl]-5,5-dimethyl-thiazolidine-4-carboxylic acid (6,7-dihydro-5H-[1]pyrindin-5-yl)-amide] | 0.51 | 0.456
